Test results: US20040249164A1, “Crystalline hydrates of nicotinic acid anilide and benzoyl anilide derivatives” (priority 2001, published 2004)

Experiments:
[1] = Physical properties of anhydrate and hydrate (Table 1); type: physicochemical
Procedure: 2-Chloro-N-(4′-chlorobiphenyl-2-yl)nicotinamide was obtained at the end of the synthesis as hot xylenic solution. Upon cooling slowly, virtually all of the active ingredient crystallized from xylene. After filtration, residual xylene was removed by drying in a vacuum drying oven, whereby the active ingredient was obtained in the form of the anhydrate. The physical properties are compiled in Table 1.
1 g of 2-chloro-N-(4′-chlorobiphenyl-2-yl)nicotinamide anhydrate was dissolved in 20 ml of THF at 40° C. and the solution was then poured into 20 ml of water. The material which had precipitated was filtered off with suction and dried at 40° C. in a drying oven.
The physical properties of the 2-chloro-N-(4′-chlorobiphenyl-2-yl)nicotinamide monohydrate thus repared are shown in Tabelle 1.

[2] = Particle size of the formulation on storage (Malvern Mastersizer); type: physicochemical; conditions: After eight milling passes, Dyno KDL mill
Procedure: 500 g of 2-chloro-N-(4′-chlorobiphenyl-2-yl)nicotinamide monohydrate were combined as described under A with adjuvants. After the mixture had been stirred briefly, it was pumped through a Dyno KDL mill (1.2 mm beads, milling space 1.2 l) at a rate of 2 l/h. The milling process was carried out without problems. No clogging of the mill or crystallization in the receiver was observed. After eight milling passes, a sufficiently fine particle size of 70% <2 μm (Malvern Mastersizer) was achieved, i.e. the particle diameter of 70% of the particles is <2 μm.
The data shown are the percentage of the particles which are smaller than 2 μm.

| SMILES | Water content [1] | particle size, share of particles <2 μm [2] |
| --- | --- | --- |
| O=C(Nc1ccccc1-c1ccc(Cl)cc1)c1cccnc1Cl [Anhydrate, 2-chloro-N-(4′-chlorobiphenyl-2-yl)nicotinamide] | <1% | – |
| O.O=C(Nc1ccccc1-c1ccc(Cl)cc1)c1cccnc1Cl [Hydrate, 2-chloro-N-(4′-chlorobiphenyl-2-yl)nicotinamide monohydrate] | 5% | 70 % <2 μm |
